In ChEMBL document CHEMBL6109110, “Novel cationic dihydropyrrol-2-one compounds as antimicrobial agents and quorum sensing inhibitors” (Bioorg Med Chem, 2025):
≈ marks a conversion by molar mass, not a printed value. Calls of active or inactive are those of the source. The rule behind the calls is not given here.

What was measured:
Pseudomonas aeruginosa [1] = assay: Growth inhibition of Pseudomonas aeruginosa MH602 expressing PlasB::gfp at 16 uM relative to control; assay type: functional; details: read-out: GI
Staphylococcus aureus = assay: Antibacterial activity against Staphylococcus aureus isolate 38 measured after 18 to 24 hrs by broth microdilution method; assay type: functional; details: time 18-24 hrs
Escherichia coli = assay: Antibacterial activity against Escherichia coli K12 measured after 18 to 24 hrs by broth microdilution method; assay type: functional; details: time 18-24 hrs
Pseudomonas aeruginosa [2] = assay: Antibacterial activity against Pseudomonas aeruginosa PAO1 measured after 18 to 24 hrs by broth microdilution method; assay type: functional; details: time 18-24 hrs
[3] = biological target: T1, Transcriptional activator protein LasR (Pseudomonas aeruginosa (strain ATCC 15692 / PAO1 / 1C / PRS 101 / LMG12228)) (UniProt P25084); assay: Inhibition of LasR quorum sensing system in Pseudomonas aeruginosa MH602 expressing PlasB::gfp assessed as reduction in GFP expression at 16 uM incubated for 15 hrs by fluorescence microplate reader analysis relative to control
T1 sequence (whole entry): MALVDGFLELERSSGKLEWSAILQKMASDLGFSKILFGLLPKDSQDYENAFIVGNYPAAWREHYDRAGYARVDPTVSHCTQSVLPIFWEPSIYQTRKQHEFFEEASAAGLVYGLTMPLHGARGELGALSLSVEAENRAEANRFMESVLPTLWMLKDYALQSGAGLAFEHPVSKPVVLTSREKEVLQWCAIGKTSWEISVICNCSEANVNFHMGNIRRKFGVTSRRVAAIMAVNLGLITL

[4] = Inhibition of quorum sensing system in Pseudomonas aeruginosa PAO1 assessed as reduction in pyocyanin production at 64 uM measured after 48 hrs relative to control
[5] = Hemolytic activity in horse RBC measured after 4 hrs; assay type: toxicity, cell-based, Equus caballus, Erythrocyte; details: horse red blood cells
[6] = Hemolytic activity in horse RBC assessed as hemolysis at 500 uM measured after 4 hrs relative to control; assay type: toxicity, cell-based, Equus caballus, Erythrocyte; details: horse red blood cells, read-out: Activity

Row | SMILES | inhibition of growth at 16 µM (Pseudomonas aeruginosa [1]) | MIC90 (Staphylococcus aureus) | MIC90 (Escherichia coli) | MIC90 (Pseudomonas aeruginosa [2]) | inhibition [3] | inhibition [4] | HC50 at 4 h [5] | hemolysis at 4 h, 500 µM [6]
1 | C=C1C(c2ccccc2)=CC(=O)N1CCCSC(=N)N | > 20% | 125 µM (≈ 35.9 µg/mL) | > 250 µM | > 250 µM | 0% |  |  | 
2 | C=C1C(c2ccc(F)cc2)=CC(=O)N1CCC[Se]C(=N)N |  | 250 µM (≈ 88.1 µg/mL) | 250 µM (≈ 88.1 µg/mL) | > 250 µM | 41.9% |  |  | 
3 | C=C1C(c2ccc(Cl)cc2)=CC(=O)N1CC[n+]1ccn(C)c1 |  | 250 µM | > 250 µM | > 250 µM | 23.4% | inactive |  | 
4 | C=C1C(c2ccccc2)=CC(=O)N1CCC[n+]1ccn(C)c1 |  | > 250 µM | > 250 µM | > 250 µM | 17.6% | inactive |  | 
5 | C=C1C(c2ccc(F)cc2)=CC(=O)N1CC[Se]C(=N)N |  | 64 µM (≈ 21.6 µg/mL) | 250 µM (≈ 84.6 µg/mL) | > 250 µM | 64.5% |  |  | 
6 | C=C1C(c2ccc(Cl)cc2)=CC(=O)N1CCC[Se]C(=N)N |  | 64 µM (≈ 23.6 µg/mL) | 125 µM (≈ 46.1 µg/mL) | > 250 µM | 56.2% |  | > 500 µM | 
7 | C=C1C(c2ccc(Br)cc2)=CC(=O)N1CCSC(=N)N |  | 16 µM (≈ 5.64 µg/mL) | 32 µM (≈ 11.3 µg/mL) | 125 µM (≈ 44 µg/mL) | 57.1% |  | > 500 µM | 22%
8 | C=C1C(c2ccc(Cl)cc2)=CC(=O)N1CCC[n+]1ccn(C)c1 |  | 250 µM | > 250 µM | > 250 µM | 17.3% | inactive |  | 
9 | C=C1C(c2ccccc2)=CC(=O)N1CCSC(=N)N | > 20% | > 250 µM | > 250 µM | > 250 µM | 9.5% | > 60% |  | 
10 | C=C1C(c2ccc(Cl)cc2)=CC(=O)N1CCSC(=N)N |  | 125 µM (≈ 38.5 µg/mL) | > 250 µM | > 250 µM | 40.8% |  |  | 
11 | C=C1C(c2ccc(F)cc2)=CC(=O)N1CCCSC(=N)N |  | 64 µM (≈ 19.5 µg/mL) | 125 µM (≈ 38.2 µg/mL) | 250 µM (≈ 76.3 µg/mL) | 59.9% |  | > 500 µM | 
12 | C=C1C(c2ccc(F)cc2)=CC(=O)N1CC[n+]1ccn(C)c1 |  | > 250 µM | > 250 µM | > 250 µM | 31.4% | inactive |  | 
13 | C=C1C(c2ccc(Br)cc2)=CC(=O)N1CCCSC(=N)N | < 20% | 64 µM (≈ 23.4 µg/mL) | 64 µM (≈ 23.4 µg/mL) | 250 µM (≈ 91.6 µg/mL) | 48.3% |  |  | 
14 | C=C1C(c2ccc(Br)cc2)=CC(=O)N1CCC[Se]C(=N)N |  | 32 µM (≈ 13.2 µg/mL) | 64 µM (≈ 26.4 µg/mL) | 250 µM (≈ 103 µg/mL) | 53.2% |  | > 250 µM | 
15 | C=C1C(c2ccc(Br)cc2)=CC(=O)N1CCC[n+]1ccn(C)c1 |  | 32 µM | 125 µM | > 250 µM | 0% | inactive | > 31 µM | 
16 | O=C1C=C(Br)/C(=C/Br)O1 |  |  |  |  | 62.5% |  |  | 
17 | C=C1C(c2ccccc2)=CC(=O)N1CC[n+]1ccn(C)c1 |  | 250 µM | 250 µM | > 250 µM | 14.4% | inactive |  | 
18 | C=C1C(c2ccc(F)cc2)=CC(=O)N1CCC[n+]1ccn(C)c1 |  | > 250 µM | > 250 µM | > 250 µM | 14.6% | inactive |  | 
19 | C=C1C(c2ccc(Cl)cc2)=CC(=O)N1CC[Se]C(=N)N | 15% | 64 µM (≈ 22.7 µg/mL) | 125 µM (≈ 44.3 µg/mL) | > 250 µM | 72.8% |  | > 500 µM | 
20 | C=C1C(c2ccc(Br)cc2)=CC(=O)N1CC[n+]1ccn(C)c1 |  | 64 µM | 250 µM | > 250 µM | 0% | inactive |  | 
21 | C=C1C(c2ccc(Br)cc2)=CC(=O)N1CC[Se]C(=N)N |  | 64 µM (≈ 25.5 µg/mL) | 125 µM (≈ 49.9 µg/mL) | > 250 µM | 69.4% | 70% |  | 
22 | C=C1C(c2ccccc2)=CC(=O)N1CCC[Se]C(=N)N |  | 250 µM (≈ 83.6 µg/mL) | > 250 µM | > 250 µM | 51.5% |  |  | 
23 | C=C1C(c2ccc(Cl)cc2)=CC(=O)N1CCCSC(=N)N |  | 64 µM (≈ 20.6 µg/mL) | 64 µM (≈ 20.6 µg/mL) | 250 µM (≈ 80.5 µg/mL) | 53.1% | 70% |  | 
24 | C=C1C(c2ccccc2)=CC(=O)N1CC[Se]C(=N)N |  | > 250 µM | > 250 µM | > 250 µM | 30.5% |  |  | 
25 | C=C1C(c2ccc(F)cc2)=CC(=O)N1CCSC(=N)N | 16% | 250 µM (≈ 72.8 µg/mL) | 250 µM (≈ 72.8 µg/mL) | > 250 µM | 73.4% | 70% |  | 
